Source: US4692511A, “Peptide antagonists for the C5a anaphylatoxin” (Immunetech Pharmaceuticals, priority 1984, dated 1987)
Peptide text beside a SMILES is read from it.

Target: T1, C5a receptor (Homo sapiens, UniProt P21730)
T1 sequence (P21730 1-350): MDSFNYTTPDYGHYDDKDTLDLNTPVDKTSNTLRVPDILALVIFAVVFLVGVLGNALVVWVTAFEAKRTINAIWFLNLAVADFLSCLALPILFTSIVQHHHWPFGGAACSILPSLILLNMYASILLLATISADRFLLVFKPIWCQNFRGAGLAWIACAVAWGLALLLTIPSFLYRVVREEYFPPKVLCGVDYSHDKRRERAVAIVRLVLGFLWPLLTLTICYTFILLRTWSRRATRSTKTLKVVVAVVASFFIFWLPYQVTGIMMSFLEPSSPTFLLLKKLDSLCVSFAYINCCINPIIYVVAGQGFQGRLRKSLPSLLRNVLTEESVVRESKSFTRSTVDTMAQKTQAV
Assay: C5a receptor blocking activity of the peptides of the invention

C[C@H](NC(=O)CNC(=O)[C@@H](N)CC(=O)O)C(=O)O [Asp-Gly-Ala] (H-Asp-Gly-Ala-OH)
C5a blocking activity: displays C5a blocking activity
